Where “and” joins values, the source holds several entries; their conditions need not be identical. Equal entries are not always repeated. Inconclusive results and toxic doses are left out. How the source made its calls: active means survival T/C of 150% or more; inactive means T/C below 125% in these data.
Test system: P388 leukemia ip, CD2F1 mice, survival T/C
Assay: NCI In Vivo Anticancer Drug Screen. Data for tumor model P388 Leukemia (intraperitoneal) in CD2F1 (CDF1) mice
Settings: endpoint: median survival time, higher = longer survival
In short: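 Mice carrying the transplanted tumor received test compound or vehicle. Survival was recorded in each group, and the value is the treated-group measurement divided by that of the vehicle-treated control group.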

[1] = dose: 12.5 mg/kg/injection, schedule: Q01DX005 (ip), vehicle: Klucel (hydroxypropylcellulose) (HPC)
[2] = dose: 25.0 mg/kg/injection, schedule: Q01DX005 (ip), vehicle: Klucel (hydroxypropylcellulose) (HPC)
[3] = dose: 3.12 mg/kg/injection, schedule: Q01DX009 (ip), vehicle: saline
[4] = dose: 6.25 mg/kg/injection, schedule: Q01DX009 (ip), vehicle: saline
[5] = dose: 12.5 mg/kg/injection, schedule: Q01DX009 (ip), vehicle: saline
[6] = dose: 100.0 mg/kg/injection, schedule: Q01DX009 (ip), vehicle: saline
[7] = dose: 200.0 mg/kg/injection, schedule: Q01DX009 (ip), vehicle: saline
[8] = dose: 60.0 mg/kg/injection, schedule: Q01DX005 (ip), vehicle: saline
[9] = dose: 60.0 mg/kg/injection, schedule: Q01DX005 (ip), vehicle: saline with Tween-80
[10] = dose: 120.0 mg/kg/injection, schedule: Q01DX005 (ip), vehicle: saline with Tween-80
[11] = dose: 240.0 mg/kg/injection, schedule: Q01DX005 (ip), vehicle: saline with Tween-80
[12] = dose: 50.0 mg/kg/injection, schedule: Q01DX005 (ip), vehicle: saline with Tween-80

Measured: T/C

COP(=O)(CS(=O)(=O)Oc1ccc(S(C)(=O)=O)cc1)OC
inactive: dose: 3.12 mg/kg/injection, schedule: Q01DX005 (ip), vehicle: Klucel (hydroxypropylcellulose) (HPC) 97 % of control | dose: 6.25 mg/kg/injection, schedule: Q01DX005 (ip), vehicle: Klucel (hydroxypropylcellulose) (HPC) 100 % of control | [1] 99 % of control | [2] 97 % of control

COc1cccc(C(=O)C(CN(C)C)CN(C)C)c1
inactive: [3] 100 % of control and 105 % of control | dose: 3.13 mg/kg/injection, schedule: Q01DX009 (ip), vehicle: saline 106 % of control | [4] 103 % of control and 115 % of control and 97 % of control | [5] 108 % of control and 112 % of control and 123 % of control | dose: 25.0 mg/kg/injection, schedule: Q01DX009 (ip), vehicle: saline 103 % of control and 123 % of control

O=C(O)C(Cc1ccc(O)cc1)NC(=O)C(F)(F)F (centres undefined)
inactive: dose: 50.0 mg/kg/injection, schedule: Q01DX009 (ip), vehicle: saline with Tween-80 98 % of control and 100 % of control | dose: 100.0 mg/kg/injection, schedule: Q01DX009 (ip), vehicle: saline with Tween-80 93 % of control | dose: 200.0 mg/kg/injection, schedule: Q01DX009 (ip), vehicle: saline with Tween-80 90 % of control

CC(C)N(CCO)CCO
inactive: dose: 50.0 mg/kg/injection, schedule: Q01DX005 (ip), vehicle: saline 104 % of control | dose: 100.0 mg/kg/injection, schedule: Q01DX005 (ip), vehicle: saline 98 % of control | dose: 200.0 mg/kg/injection, schedule: Q01DX005 (ip), vehicle: saline 100 % of control

S=C1SCCCN1Cc1ccc(Cl)cc1
inactive: dose: 50.0 mg/kg/injection, schedule: Q01DX009 (ip), vehicle: Klucel (hydroxypropylcellulose) (HPC) 95 % of control | dose: 100.0 mg/kg/injection, schedule: Q01DX009 (ip), vehicle: Klucel (hydroxypropylcellulose) (HPC) 104 % of control | dose: 200.0 mg/kg/injection, schedule: Q01DX009 (ip), vehicle: Klucel (hydroxypropylcellulose) (HPC) 107 % of control

NC(=O)c1cc(C(N)=O)n(C2OC(CO)C(O)C2O)n1 (centres undefined)
inactive: dose: 30.0 mg/kg/injection, schedule: Q04DX002 (ip), vehicle: saline 98 % of control and 99 % of control | dose: 60.0 mg/kg/injection, schedule: Q04DX002 (ip), vehicle: saline 104 % of control and 93 % of control | dose: 120.0 mg/kg/injection, schedule: Q04DX002 (ip), vehicle: saline 98 % of control and 93 % of control

COC(=O)/C=C(/Sc1nc(Cl)c(Cl)nc1N)C(=O)OC (tested in a mixture with another compound)
inactive: dose: 7.5 mg/kg/injection, schedule: Q01DX005 (ip), vehicle: Klucel (hydroxypropylcellulose) (HPC) 103 % of control | dose: 15.0 mg/kg/injection, schedule: Q01DX005 (ip), vehicle: Klucel (hydroxypropylcellulose) (HPC) 113 % of control | dose: 30.0 mg/kg/injection, schedule: Q01DX005 (ip), vehicle: Klucel (hydroxypropylcellulose) (HPC) 113 % of control

CCN(CC)c1ccc2nc3ccc(N=Nc4c(O)ccc5ccccc45)cc3[n+](-c3ccccc3)c2c1
inactive: dose: 0.75 mg/kg/injection, schedule: Q01DX005 (ip), vehicle: saline with Tween-80 115 % of control | dose: 1.5 mg/kg/injection, schedule: Q01DX005 (ip), vehicle: saline with Tween-80 120 % of control | dose: 3.0 mg/kg/injection, schedule: Q01DX005 (ip), vehicle: saline with Tween-80 120 % of control | dose: 6.0 mg/kg/injection, schedule: Q01DX005 (ip), vehicle: saline with Tween-80 90 % of control

CC(=O)CC1(O)C(=O)C(C(C)(C)C)=CC2(C(C)(C)C)OC12 (centres undefined)
inactive: dose: 50.0 mg/kg/injection, schedule: Q01DX009 (ip), vehicle: saline 102 % of control | [6] 95 % of control | [7] 95 % of control

COc1cc[n+]([O-])cc1
inactive: [6] 95 % of control | [7] 90 % of control | dose: 400.0 mg/kg/injection, schedule: Q01DX009 (ip), vehicle: saline 95 % of control

CC(C)C(CC[C@@H](C)C1CC[C@@]2(C)C3=C(CC[C@]12C)[C@@]1(C)CC[C@H](O)C(C)(C)[C@@H]1CC3)S[As](C)C (some centres undefined)
inactive: dose: 50.0 mg/kg/injection, schedule: Q01DX005 (ip), vehicle: Klucel (hydroxypropylcellulose) (HPC) 92 % of control | dose: 100.0 mg/kg/injection, schedule: Q01DX005 (ip), vehicle: Klucel (hydroxypropylcellulose) (HPC) 95 % of control | dose: 200.0 mg/kg/injection, schedule: Q01DX005 (ip), vehicle: Klucel (hydroxypropylcellulose) (HPC) 97 % of control

Cc1ccc2c(C)cc(=O)oc2c1
inactive: dose: 100.0 mg/kg/injection, schedule: Q04DX003 (ip), vehicle: saline 102 % of control | dose: 200.0 mg/kg/injection, schedule: Q04DX003 (ip), vehicle: saline 105 % of control | dose: 400.0 mg/kg/injection, schedule: Q04DX003 (ip), vehicle: saline 108 % of control

NC(CCl)=NCCOC12CC3CC(CC(C3)C1)C2
inactive: dose: 15.0 mg/kg/injection, schedule: Q01DX005 (ip), vehicle: saline 103 % of control | dose: 30.0 mg/kg/injection, schedule: Q01DX005 (ip), vehicle: saline 103 % of control | [8] 106 % of control and 98 % of control

CC(C)(C)C1C=Nn2c(=O)n(-c3ccccc3)c(=O)n21 (centres undefined)
inactive: dose: 25.0 mg/kg/injection, schedule: Q04DX003 (ip), vehicle: other 91 % of control | dose: 100.0 mg/kg/injection, schedule: Q04DX003 (ip), vehicle: other 94 % of control | dose: 200.0 mg/kg/injection, schedule: Q04DX003 (ip), vehicle: other 98 % of control | dose: 400.0 mg/kg/injection, schedule: Q04DX003 (ip), vehicle: other 100 % of control

COC1=C(OC)C(=O)C2=C(OCCO2)C1=O
inactive: dose: 25.0 mg/kg/injection, schedule: Q01DX001 (ip), vehicle: saline with Tween-80 109 % of control | dose: 50.0 mg/kg/injection, schedule: Q01DX001 (ip), vehicle: saline with Tween-80 106 % of control | dose: 100.0 mg/kg/injection, schedule: Q01DX001 (ip), vehicle: saline with Tween-80 107 % of control

Cc1c(Cl)c(C)c(Cl)c(O)c1Cl
inactive: dose: 100.0 mg/kg/injection, schedule: Q04DX003 (ip), vehicle: saline with Tween-80 104 % of control | dose: 200.0 mg/kg/injection, schedule: Q04DX003 (ip), vehicle: saline with Tween-80 100 % of control | dose: 400.0 mg/kg/injection, schedule: Q04DX003 (ip), vehicle: saline with Tween-80 104 % of control

OC1COC(Sc2ncc[nH]2)C(O)C1O (centres undefined)
inactive: [9] 97 % of control | [8] 96 % of control | [10] 97 % of control | dose: 120.0 mg/kg/injection, schedule: Q01DX005 (ip), vehicle: saline 97 % of control | [11] 94 % of control | dose: 240.0 mg/kg/injection, schedule: Q01DX005 (ip), vehicle: saline 97 % of control

Cc1ccccc1C1N=C2Oc3ccccc3C=C2C(=O)N1 (centres undefined)
inactive: [1] 100 % of control and 102 % of control and 98 % of control | [2] 93 % of control

Fc1ccc(-c2nc3ccccn3c2N=Nc2ccccc2)cc1
inactive: [12] 88 % of control | dose: 100.0 mg/kg/injection, schedule: Q01DX005 (ip), vehicle: saline with Tween-80 97 % of control | dose: 200.0 mg/kg/injection, schedule: Q01DX005 (ip), vehicle: saline with Tween-80 94 % of control

O=C1CC(Cl)(CS(F)(F)(F)(F)F)O1 (centres undefined)
inactive: dose: 12.5 mg/kg/injection, schedule: Q01DX005 (ip), vehicle: saline + alcohol 100 % of control | dose: 12.5 mg/kg/injection, schedule: Q01DX005 (ip), vehicle: saline with Tween-80 104 % of control | dose: 25.0 mg/kg/injection, schedule: Q01DX005 (ip), vehicle: saline + alcohol 103 % of control | dose: 25.0 mg/kg/injection, schedule: Q01DX005 (ip), vehicle: saline with Tween-80 109 % of control | dose: 50.0 mg/kg/injection, schedule: Q01DX005 (ip), vehicle: saline + alcohol 99 % of control | [12] 110 % of control and 114 % of control

COc1ccc(C(=O)C2=C(C)Nc3ccc(Br)cc3S2)cc1
inactive: [9] 101 % of control | [10] 110 % of control | [11] 105 % of control

CC1=C(C)SC(=S)NN1
inactive: [3] 96 % of control | [4] 100 % of control | [5] 100 % of control

CCCCCCCCCCCCCC[N+](C)(CC(=O)[O-])Cc1ccccc1 (centres undefined)
inactive: dose: 15.0 mg/kg/injection, schedule: Q01DX005 (ip), vehicle: saline with Tween-80 108 % of control | dose: 30.0 mg/kg/injection, schedule: Q01DX005 (ip), vehicle: saline with Tween-80 93 % of control | [9] 101 % of control
